Test results from patent US20130184273A1, “BICYCLIC PYRIMIDINES” (Bayer Intellectual Property GmbH, priority 2010, published 2013).
pIC50: −log10 of the molar value.

What was measured:
[1] = target: T1, His-tagged human recombinant kinase full-length Akt2 (Homo sapiens, UniProt P31751); experiment: Akt2 kinase assay (TR-FRET); assay type: biochemical; conditions: 10 μM ATP, 60 min at 22° C., read-out: Akt2, median IC50
T1 construct: His-tagged human recombinant kinase full-length Akt2; His; purchased Invitrogen PV 3975; host or cells: insect cells
From the text: Akt2 inhibitory activity of compounds of the present invention was quantified employing the Akt2 TR-FRET assay as described in the following paragraphs.
(§1) His-tagged human recombinant kinase full-length Akt2 expressed in insect cells and activated by PDK1 was purchased form Invitrogen (part number PV 3975). As substrate for the kinase reaction the biotinylated peptide biotin-Ahx-KKLNRTLSFAEPG (C-terminus in amide form) was used which can be purchased e.g. from the company Biosynthan GmbH (Berlin-Buch, Germany).
(§2) For the assay 50 nl of a 100 fold concentrated solution of the test compound in DMSO was pipetted into a black low volume 384well microtiter plate (Greiner Bio-One, Frickenhausen, Germany), 2 μl of a solution of Akt2 in assay buffer [50 mM TRIS/HCl pH 7.5, 5 mM MgCl2, 1 mM dithiothreitol, 0.02% (v/v) Triton X-100 (Sigma)] were added and the mixture was incubated for 15 min at 22° C. to allow pre-binding of the test compounds to the enzyme before the start of the kinase reaction. Then the kinase reaction was started by the addition of 3 μl of a solution of adenosine-tri-phosphate (ATP, 16.7 μM=>final conc. in the 5 μl assay volume is 10 μM) and substrate (1.67 μM=>final conc. in the 5 μl assay volume is 1 μM) in assay buffer and the resulting mixture was incubated for a reaction time of 60 min at 22° C. The concentration of Akt2 in the assay was adjusted depending of the activity of the enzyme lot and was chosen appropriate to have the assay in the linear range, typical enzyme concentrations were in the range of about 0.2 ng/μl (final conc. in the 5 μl assay volume).
The reaction was stopped by the addition of 5 μl of a solution of HTRF detection reagents (200 nM streptavidine-XL665 [Cisbio] and 1.5 nM anti-phosho-Serine antibody [Millipore, cat. #35-001] and 0.75 nM LANCE Eu-W 1024 labeled anti-mouse IgG antibody [Perkin Elmer]) in an aqueous EDTA-solution (100 mM EDTA, 0.1% (w/v) bovine serum albumin in 50 mM HEPES/NaOH pH 7.5).
The resulting mixture was incubated 1 h at 22° C. to allow the binding of the biotinylated phosphorylated peptide to the streptavidine-XL665 and the antibodies.
Subsequently the amount of phosphorylated substrate was evaluated by measurement of the resonance energy transfer from the anti-mouse-IgG-Eu-Chelate to the streptavidine-XL665. Therefore, the fluorescence emissions at 620 nm and 665 nm after excitation at 350 nm was measured in a TR-FRET reader, e.g. a Rubystar (BMG Labtechnologies, Offenburg, Germany) or a Viewlux (Perkin-Elmer). The ratio of the emissions at 665 nm and at […] was taken as the measure for the amount of phosphorylated substrate. The data were normalised (enzyme reaction without inhibitor=0% inhibition, all other assay components but no enzyme=100% inhibition).

[2] = target: T2, His-tagged human recombinant kinase full-length Akt1 (Homo sapiens, UniProt P31749); experiment: Akt1 kinase assay (TR-FRET); assay type: biochemical; conditions: 10 μM ATP, 60 min at 22° C., read-out: Akt1, median IC50
T2 construct: His-tagged human recombinant kinase full-length Akt1; His; purchased Invitrogen PV 3599; host or cells: insect cells
From the text: Akt1 inhibitory activity of compounds of the present invention was quantified employing the Akt1 TR-FRET assay as described in the following paragraphs.
as §1, with “Akt1” for “Akt2”, “cells” for “cells and activated by PDK1”, “3599).” for “3975).”
as §2, with “Akt1” for “Akt2”, “0.05” for “0.2”
The reaction was stopped by the addition of 5 μl of a solution of HTRF detection reagents (200 nM streptavidine-XL665 [Cisbio] and 1.5 nM anti-phosho-Serine antibody [Millipore, cat. #35-001] and 0.75 nM LANCE Eu-W 1024 labeled anti-mouse IgG antibody [Perkin Elmer]) in an aqueous EDTA-solution (100 mM EDTA, 0.1% (w/v) bovine serum albumin in 50 mM HEPES/NaOH pH 7.5). The resulting mixture was incubated 1 h at 22° C. to allow the binding of the biotinylated phosphorylated peptide to the streptavidine-XL665 and the antibodies. Subsequently the amount of phosphorylated substrate was evaluated by measurement of the resonance energy transfer from the anti-mouse-IgG-Eu-Chelate to the streptavidine-XL665. Therefore, the fluorescence emissions at 620 nm and 665 nm after excitation at 350 nm was measured in a HTRF reader, e.g. a Rubystar (BMG Labtechnologies, Offenburg, Germany) or a Viewlux (Perkin-Elmer). The ratio of the emissions at 665 nm and at […] was taken as the measure for the amount of phosphorylated substrate. The data were normalised (enzyme reaction without inhibitor=0% inhibition, all other assay components but no enzyme=100% inhibition).

[3] = system: KPL-4 breast cancer cell line; experiment: Tumor cell proliferation assay (CellTiter-Glo); assay type: cell-based; conditions: KPL4, 72 h drug exposure
Experimental: Compounds were tested in a cell-based assay that measures the capacity of the compounds to inhibit tumour cell proliferation following a 72 h drug exposure. Cell viability is determined using CellTiter-Glow® (CTG, Promega, cat #G7571/2/3). The CellTiter-Glo® Luminescent Cell Viability Assay is a homogeneous method to determine the number of viable cells in culture. Detection is based on using the luciferase reaction to measure the amount of ATP from viable cells. The amount of ATP in cells correlates with cell viability. Within minutes after a loss of membrane integrity, cells lose the ability to synthesize ATP, and endogenous ATPases destroy any remaining ATP; thus the levels of ATP fall precipitously.
Cells were plated at 3000-5000 cells/well (depending on the cell lines) in 90 μL growth medium on MTPs (Corning; #3603, black plate, clear flat bottom). For each cell line assayed, cells were plated onto a separate plate for determination of […] at t=0 hour and t=72 hour time points. Following overnight incubation at 37° C., chemiluminescence values for the t=0 samples were determined after adding 10 μl medium and 100 μl CTG solution according to manufacture protocol. Plates for the t=72 hour time points were treated with compounds diluted into growth medium at ten times final concentration added in 10 μL to the cell culture plate. Cells were then incubated for 72 hours at 37° C. Chemiluminescence values for the t=72 hour samples were determined. […] Experiments were controlled using a reference compound as standard.

[4] = system: phospho-AKT at S473 in KPL4 breast tumour cell line; experiment: Cellular p-AKT1/2/3-S473 assay; assay type: cell-based; conditions: KPL4 cells, treated with compounds for 2 hours; read-out: pAKT-S743 median IC50
Experimental: The molecular mechanism of action was investigated in a set of experiments to assess the inhibition of the PI3K-AKT-mTOR pathway in responsive cell lines such as KPL4 breast tumour cell line (PIK3CAH1047R, HER20/E and hormone independent). The phospho-substrates of PI3K-AKT-mTOR axis were used as the read-outs to reflect pathway inhibition. Cells were seeded at 60-80% confluency per well in 96-well cell culture plates. After overnight incubation at 37° C. 5% CO2, cells were treated with compounds and vehicle at 37° C. for 2 hours. Thereafter, cells were lysed in 150 μl lysis buffer and the levels of phospho-AKT at T308 and S473 and p-4E-BP1 at T70 sites were determined with the corresponding AlphaScreen® SureFire® assay kits (Perkin Elmer: 4E-BP1 Assay Kit Cat # TRG4E2S10K; Akt 1/2/3 p-Ser 473 #TGRA4S500 and Akt 1/2/3 p-Thr 308 #TGRA3S500 as well as IgG detection Kit #6760617M) as described in the manuals. All measurements where at least done in duplicates and confirmed by independent repetition.
Alternatively pAKT-S473 was measured using the “Akt Duplex” of the MULTI-SPOT® Assay System (Fa. Meso Scale Discovery, Cat#N41100B-1) following manufacturers instructions. Each assay used 20 μg of protein extract and measured total AKT and p-AKT content simultaneously in one well. All measurements where at least done in duplicates and confirmed by independent repetition. Values for P-AKT are expressed as percentage of P-AKT level compared to total-AKT content of the extracts.

T2 sequence (P31749 whole entry): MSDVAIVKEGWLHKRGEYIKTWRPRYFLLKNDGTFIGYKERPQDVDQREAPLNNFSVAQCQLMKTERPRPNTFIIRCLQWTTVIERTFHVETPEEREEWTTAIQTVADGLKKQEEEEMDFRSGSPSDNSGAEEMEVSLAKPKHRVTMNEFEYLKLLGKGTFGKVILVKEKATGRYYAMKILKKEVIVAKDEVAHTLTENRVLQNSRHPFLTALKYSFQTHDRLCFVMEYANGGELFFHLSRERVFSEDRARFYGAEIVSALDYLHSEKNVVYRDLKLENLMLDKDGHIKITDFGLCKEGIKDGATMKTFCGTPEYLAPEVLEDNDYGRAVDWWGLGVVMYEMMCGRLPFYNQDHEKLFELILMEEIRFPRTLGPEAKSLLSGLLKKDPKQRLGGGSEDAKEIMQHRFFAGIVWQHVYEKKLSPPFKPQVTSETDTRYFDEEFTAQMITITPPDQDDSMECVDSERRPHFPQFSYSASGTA
T1 sequence (P31751 whole entry): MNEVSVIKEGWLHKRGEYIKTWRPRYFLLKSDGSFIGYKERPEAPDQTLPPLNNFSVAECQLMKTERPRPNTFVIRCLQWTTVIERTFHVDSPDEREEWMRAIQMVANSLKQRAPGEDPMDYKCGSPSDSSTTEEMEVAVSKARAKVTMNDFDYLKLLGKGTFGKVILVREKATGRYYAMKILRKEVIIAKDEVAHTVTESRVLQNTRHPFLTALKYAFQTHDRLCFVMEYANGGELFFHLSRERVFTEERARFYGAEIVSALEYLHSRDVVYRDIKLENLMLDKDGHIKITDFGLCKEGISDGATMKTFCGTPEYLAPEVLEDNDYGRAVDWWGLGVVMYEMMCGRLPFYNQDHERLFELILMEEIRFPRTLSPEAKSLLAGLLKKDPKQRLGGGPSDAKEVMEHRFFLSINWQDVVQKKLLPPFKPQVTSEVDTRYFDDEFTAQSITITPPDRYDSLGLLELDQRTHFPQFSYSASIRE

Structure (SMILES)	pIC50 [1]	pIC50 [2]	pIC50 [3]	pIC50 [4]
NC1(c2ccc(-c3nc4nc(Nc5ccccc5)nn4cc3-c3ccccc3)cc2)CCC1 [Example 5-4, {5-[4-(1-Amino-cyclobutyl)-phenyl]-6-phenyl-[1,2,4]triazolo[1,5-a]pyrimidin-2-yl}-phenyl-amine]	6.71	6.55	5.21	–
CC(C)Nc1nc2nc(-c3ccc(C4(N)CCC4)cc3)c(-c3ccccc3)cn2n1 [Example 5-5, {5-[4-(1-amino-cyclobutyl)-phenyl]-6-phenyl-[1,2,4]triazolo[1,5-a]pyrimidin-2-yl}-isopropyl-amine]	6.63	5.83	5.66	–
Cc1nc2nc(-c3ccc(C4(N)CCC4)cc3)c(-c3ccccc3)c(NC3CCC3)n2n1 [Example 5-8, {5-[4-(1-amino-cyclobutyl)-phenyl]-2-methyl-6-phenyl-[1,2,4]triazolo[1,5-a]pyrimidin-7-yl}-cyclobutyl-amine]	6.52	6.14	5.44	–
NC1(c2ccc(-c3nc4ncc(-c5ccc(F)c(CO)c5)n4cc3-c3ccccc3)cc2)CCC1 [Example 6-1, (5-{7-[4-(1-Amino-cyclobutyl)-phenyl]-6-phenyl-imidazo[1,2-a]pyrimidin-3-yl}-2-fluoro-phenyl)-methanol]	6.20	–	5.68	6.27
